Experimental findings from PMC4891657, “Orexin 2 Receptor Antagonism is Sufficient to Promote NREM and REM Sleep from Mouse to Man” (Scientific Reports, 2016) are described below.

The test deals with sleep/wake stages. Nature of the test: Polysomnography in telemetered Sprague-Dawley rats. The class given is in vivo, rat. As to the method:
MK-1064 promoted both REM and NREM sleep in telemetered rats in a time-of-day-dependent manner.
Figure 2 MK-1064 dose-dependently promotes both NREM and REM sleep during the active phase in rats. Mean time in active wake, light sleep (LS), SWS, and REM sleep in adult Sprague-Dawley rats monitored for 2 hours post-dose. MK-1064 (5, 10, or 20 mg/kg) or vehicle (20% vitamin E TPGS, orally) was administered in a balanced crossover design such that each animal received drug and vehicle treatments (7 consecutive days). […] Mean within-subject change relative to vehicle ± SEM is shown (*, ***p < 0.05 < 0.001, respectively; one sample t-test for repeated measures compared with vehicle).
The mean time spent in sleep stages was determined in radio-telemetry–implanted mice, rats, and dogs, as described previously. Continuous PSG recordings were performed following oral MK-1064 or vehicle (20% vitamin E d-alpha tocopheryl polyethylene glycol 1000 succinate [TPGS]) administration. In rodents, electrocorticogram (ECoG) and electromyogram (EMG) and locomotor activity measured via radio-telemetry were scored in 10 second epochs to define light sleep (LS; no movement, moderate EMG tone, theta with <50% delta ECoG [0.5–4 Hz]), slow wave sleep (SWS; no gross movement, reduced EMG, >50% delta ECoG) and rapid eye movement sleep (REM; no movement, little to no EMG activity, primarily theta ECoG [4–7 Hz] activity)[42]. Scored data were then grouped and compiled according to condition (vehicle or compound treatment) averaged over the indicated times (30 minutes or 2 hours) and analyzed statistically as previously described[1][14][40][42] (see below). Canine sleep was scored similarly except that electrooculogram (EOG) recordings were used to define and distinguish REM sleep (high frequency EOG, no locomotor, little to no EMG activity, theta ECoG) from non-REM I (NREM I; little to no EOG activity, no movement, moderate EMG tone, <50% delta ECoG) and NREM II sleep (little to no EOG activity, no gross movement, reduced EMG, >50% delta ECoG), and analyzed as described previously.
In adult male Sprague-Dawley rats (600 g, Taconic Farms, Germantown, NY), MK-1064 (5, 10, or 20 mg/kg) or vehicle was administered orally in a balanced crossover design such that each subject received drug and vehicle treatments (7 consecutive days). […] Data were analyzed using within-subject ANOVA to determine main effects and one sample t-test to compare with vehicle.

With `COc1ccc(CNC(=O)c2cc(-c3cncc(Cl)c3)cnc2-c2ccccn2)nc1OC` [MK-1064, 5″-chloro-N-[(5,6-dimethoxypyridin-2-yl)methyl]-2,2′:5′, 3″-terpyridine-3′-carbo xamide], the “sleep stage changes, late active phase administration” value (ZT 23:00, 1 hour prior to inactive period, 20 mg/kg oral) is “only SWS reached significance”. For the same compound, the “active wake during the 2 hours following administration” value (mid-active phase (ZT 17:00), 5, 10 and 20 mg/kg oral, 20 mg/kg significant p < 0.05) is recorded as “dose dependently attenuated active wake”. Moreover, the “SWS during the 2 hours following administration” value (mid-active phase, 20 mg/kg oral) is given as “increases in SWS”. In addition, the “REM sleep during the 2 hours following administration” value (mid-active phase, 10 and 20 mg/kg oral) was “increases in REM sleep”.
